Measured values as given in patent US6358885B1, “Substituted phenylheterocyclic herbicides” (Mississippi State University, priority 1992, dated 2002).

What was measured:
cheatgrass = assay: Test B preemergence/postemergence greenhouse plant response rating 0 to 10; type: in vivo, Bromus secalinus; conditions: 0 to 10 scale
In short: (§1)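 Planted seeds are treated preemergence with compound dissolved in a non-phytotoxic solvent, while postemergence applications go onto plants of two to eighteen cm. Plants stay in the greenhouse twelve to sixteen days and are then rated visually relative to controls.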

sugar beet = assay: Test C preemergence/postemergence greenhouse plant response rating 0 to 100; type: in vivo, Beta vulgaris
In short: (§2)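 Compounds in non-phytotoxic solvent went onto sandy loam before emergence (seeded one day earlier) or onto plants at the one-to-four leaf stage. Duck salad was treated via flood water (~2.5 cm, maintained) over silt loam.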

soybean [1] = assay: as above; type: in vivo, Glycine max
In short: as §2

ryegrass = assay: as above; type: in vivo, Lolium multiflorum; conditions: for Plant response rating Ryegrass: 62 g/ha, 0 to 100 scale
In short: as §2

velvetleaf = assay: Test B preemergence/postemergence greenhouse plant response rating 0 to 10; type: in vivo, Abutilon theophrasti; conditions: 0 to 10 scale
In short: as §1

soybean [2] = assay: as above; type: in vivo, Glycine max; conditions: 0 to 10 scale
In short: as §1

wild buckwheat = assay: Test C preemergence/postemergence greenhouse plant response rating 0 to 100; type: in vivo, Polygonum convolvulus
In short: as §2

lambsquarters [3] = assay: Test B preemergence/postemergence greenhouse plant response rating 0 to 10; type: in vivo, Chenopodium album; conditions: 0 to 10 scale
In short: as §1

giant foxtail = assay: as above; type: in vivo, Setaria faberii; conditions: 0 to 10 scale
In short: as §1

barley [4] = assay: Test C preemergence/postemergence greenhouse plant response rating 0 to 100; type: in vivo, Hordeum vulgare; conditions: for Plant response rating Barley Igri: 62 g/ha, 0 to 100 scale
In short: as §2

purple nutsedge = assay: Test B preemergence/postemergence greenhouse plant response rating 0 to 10; type: in vivo, Cyperus rotundus; conditions: 0 to 10 scale
In short: as §1

blackgrass = assay: as above; type: in vivo, Alopecurus myosuroides; conditions: 0 to 10 scale
In short: as §1

lambsquarters [5] = assay: Test C preemergence/postemergence greenhouse plant response rating 0 to 100; type: in vivo, Chenopodium album; conditions: for Plant response rating Lambsquarters: 62 g/ha, 0 to 100 scale
In short: as §2

crabgrass = assay: Test B preemergence/postemergence greenhouse plant response rating 0 to 10; type: in vivo, Digitaria spp.; conditions: 0 to 10 scale
In short: as §1

chickweed = assay: Test C preemergence/postemergence greenhouse plant response rating 0 to 100; type: in vivo, Stellaria media; conditions: for Plant response rating, Chickweed: 62 g/ha, 0 to 100 scale
In short: as §2

rape = assay: Test B preemergence/postemergence greenhouse plant response rating 0 to 10; type: in vivo, Brassica napus; conditions: 0 to 10 scale
In short: as §1

pigweed = assay: Test C preemergence/postemergence greenhouse plant response rating 0 to 100; type: in vivo, Amaranthusretroflexus; conditions: for Plant response rating Pigweed: 62 g/ha, 0 to 100 scale
In short: as §2

barley [6] = assay: Test B preemergence/postemergence greenhouse plant response rating 0 to 10; type: in vivo, Hordeum vulgare; conditions: 0 to 10 scale
In short: as §1

[7] = POSTEMERGENCE, 62 g/ha, 0 to 100 scale

Which results are given for `CCN1C(=O)COc2cc(F)c(-c3nn4c(c3Cl)CCCC4)cc21` [Compound 54]?
Plant response rating, Cheatgrass (cheatgrass; POSTEMERGENCE, Rate 10 g/ha): 5; Plant response rating, Cheatgrass (cheatgrass; POSTEMERGENCE, Rate 50 g/ha): 7; Plant response rating, Cheatgrass (cheatgrass; PREEMERGENCE, Rate 10 g/ha): 1; Plant response rating, Cheatgrass (cheatgrass; PREEMERGENCE, Rate 50 g/ha): 3; Plant response rating, Sugar beet (sugar beet; [7]): 100; Plant response rating (0 to 100), Sugar beet (sugar beet; POSTEMERGENCE, Rate 1 g/ha): 100; Plant response rating (0 to 100), Sugar beet (sugar beet; POSTEMERGENCE, Rate 4 g/ha): 100; Plant response rating (0 to 100), Sugar beet (sugar beet; PREEMERGENCE, Rate 1 g/ha): 0; Plant response rating (0 to 100), Sugar beet (sugar beet; PREEMERGENCE, Rate 4 g/ha): 10; Plant response rating (0 to 100), Sugar beet (sugar beet; Rate 16 g/ha, POSTEMERGENCE): 100; Plant response rating (0 to 100), Sugar beet (sugar beet; Rate 16 g/ha, PREEMERGENCE): 100; Plant response rating, Soybean (soybean [1]; [7]): 95; Plant response rating (0 to 100), Soybean (soybean [1]; POSTEMERGENCE, Rate 1 g/ha): 50; Plant response rating (0 to 100), Soybean (soybean [1]; POSTEMERGENCE, Rate 4 g/ha): 65; Plant response rating (0 to 100), Soybean (soybean [1]; PREEMERGENCE, Rate 1 g/ha): 0; Plant response rating (0 to 100), Soybean (soybean [1]; PREEMERGENCE, Rate 4 g/ha): 0; Plant response rating (0 to 100), Soybean (soybean [1]; Rate 16 g/ha, POSTEMERGENCE): 85; Plant response rating (0 to 100), Soybean (soybean [1]; Rate 16 g/ha, PREEMERGENCE): 0; Plant response rating Ryegrass (ryegrass; POSTEMERGENCE): 60; Plant response rating (0 to 100), Ryegrass (ryegrass; POSTEMERGENCE, Rate 1 g/ha): 10; Plant response rating (0 to 100), Ryegrass (ryegrass; POSTEMERGENCE, Rate 4 g/ha): 30; Plant response rating Ryegrass (ryegrass; PREEMERGENCE): 70; Plant response rating (0 to 100), Ryegrass (ryegrass; PREEMERGENCE, Rate 1 g/ha): 0; Plant response rating (0 to 100), Ryegrass (ryegrass; PREEMERGENCE, Rate 4 g/ha): 0; Plant response rating (0 to 100), Ryegrass (ryegrass; Rate 16 g/ha, POSTEMERGENCE): 40; Plant response rating (0 to 100), Ryegrass (ryegrass; Rate 16 g/ha, PREEMERGENCE): 30; Plant response rating, Velvetleaf (velvetleaf; POSTEMERGENCE, Rate 10 g/ha): 8; Plant response rating, Velvetleaf (velvetleaf; POSTEMERGENCE, Rate 50 g/ha): 9; Plant response rating, Velvetleaf (velvetleaf; PREEMERGENCE, Rate 50 g/ha): 10; Plant response rating, Soybean (soybean [2]; POSTEMERGENCE, Rate 10 g/ha): 8; Plant response rating, Soybean (soybean [2]; POSTEMERGENCE, Rate 50 g/ha): 9; Plant response rating, Soybean (soybean [2]; PREEMERGENCE, Rate 50 g/ha): 0; Plant response rating, Wild buckwheat (wild buckwheat; [7]): 100; Plant response rating (0 to 100), Wild buckwheat (wild buckwheat; POSTEMERGENCE, Rate 1 g/ha): 100; Plant response rating (0 to 100), Wild buckwheat (wild buckwheat; POSTEMERGENCE, Rate 4 g/ha): 100; Plant response rating (0 to 100), Wild buckwheat (wild buckwheat; PREEMERGENCE, Rate 1 g/ha): 0; Plant response rating (0 to 100), Wild buckwheat (wild buckwheat; PREEMERGENCE, Rate 4 g/ha): 0; Plant response rating (0 to 100), Wild buckwheat (wild buckwheat; Rate 16 g/ha, POSTEMERGENCE): 100; Plant response rating (0 to 100), Wild buckwheat (wild buckwheat; Rate 16 g/ha, PREEMERGENCE): 100; Plant response rating, Lambsquarter (lambsquarters [3]; POSTEMERGENCE, Rate 10 g/ha): 10; Plant response rating, Lambsquarter (lambsquarters [3]; POSTEMERGENCE, Rate 50 g/ha): 10; Plant response rating, Lambsquarter (lambsquarters [3]; PREEMERGENCE, Rate 50 g/ha): 10; Plant response rating, Giant foxtail (giant foxtail; POSTEMERGENCE, Rate 10 g/ha): 4; Plant response rating, Giant foxtail (giant foxtail; POSTEMERGENCE, Rate 50 g/ha): 4; Plant response rating, Giant foxtail (giant foxtail; PREEMERGENCE, Rate 10 g/ha): 0; Plant response rating, Giant foxtail (giant foxtail; PREEMERGENCE, Rate 50 g/ha): 8; Plant response rating Barley Igri (barley [4]; POSTEMERGENCE): 50; Plant response rating (0 to 100), Barley Igri (barley [4]; POSTEMERGENCE, Rate 1 g/ha): 30; Plant response rating (0 to 100), Barley Igri (barley [4]; POSTEMERGENCE, Rate 4 g/ha): 40; Plant response rating Barley Igri (barley [4]; PREEMERGENCE): 10; Plant response rating (0 to 100), Barley Igri (barley [4]; PREEMERGENCE, Rate 1 g/ha): 0; Plant response rating (0 to 100), Barley Igri (barley [4]; PREEMERGENCE, Rate 4 g/ha): 0; Plant response rating (0 to 100), Barley Igri (barley [4]; Rate 16 g/ha, POSTEMERGENCE): 50; Plant response rating (0 to 100), Barley Igri (barley [4]; Rate 16 g/ha, PREEMERGENCE): 0; Plant response rating, Nutsedge (purple nutsedge; POSTEMERGENCE, Rate 10 g/ha): 2; Plant response rating, Nutsedge (purple nutsedge; POSTEMERGENCE, Rate 50 g/ha): 2; Plant response rating, Nutsedge (purple nutsedge; PREEMERGENCE, Rate 50 g/ha): 0; Plant response rating, Blackgrass (blackgrass; POSTEMERGENCE, Rate 10 g/ha): 5; Plant response rating, Blackgrass (blackgrass; POSTEMERGENCE, Rate 50 g/ha): 6; Plant response rating, Blackgrass (blackgrass; PREEMERGENCE, Rate 10 g/ha): 3; Plant response rating, Blackgrass (blackgrass; PREEMERGENCE, Rate 50 g/ha): 3; Plant response rating Lambsquarters (lambsquarters [5]; POSTEMERGENCE): 100; Plant response rating (0 to 100), Lambsquarters (lambsquarters [5]; POSTEMERGENCE, Rate 1 g/ha): 10; Plant response rating (0 to 100), Lambsquarters (lambsquarters [5]; POSTEMERGENCE, Rate 4 g/ha): 50; Plant response rating Lambsquarters (lambsquarters [5]; PREEMERGENCE): 100; Plant response rating (0 to 100), Lambsquarters (lambsquarters [5]; PREEMERGENCE, Rate 1 g/ha): 0; Plant response rating (0 to 100), Lambsquarters (lambsquarters [5]; PREEMERGENCE, Rate 4 g/ha): 60; Plant response rating (0 to 100), Lambsquarters (lambsquarters [5]; Rate 16 g/ha, POSTEMERGENCE): 75; Plant response rating (0 to 100), Lambsquarters (lambsquarters [5]; Rate 16 g/ha, PREEMERGENCE): 100; Plant response rating, Crabgrass (crabgrass; POSTEMERGENCE, Rate 10 g/ha): 2; Plant response rating, Crabgrass (crabgrass; POSTEMERGENCE, Rate 50 g/ha): 3; Plant response rating, Crabgrass (crabgrass; PREEMERGENCE, Rate 10 g/ha): 0; Plant response rating, Crabgrass (crabgrass; PREEMERGENCE, Rate 50 g/ha): 0; Plant response rating, Chickweed (chickweed; POSTEMERGENCE): 100; Plant response rating (0 to 100), Chickweed (chickweed; POSTEMERGENCE, Rate 1 g/ha): 60; Plant response rating (0 to 100), Chickweed (chickweed; POSTEMERGENCE, Rate 4 g/ha): 75; Plant response rating, Chickweed (chickweed; PREEMERGENCE): 100; Plant response rating (0 to 100), Chickweed (chickweed; PREEMERGENCE, Rate 1 g/ha): 0; Plant response rating (0 to 100), Chickweed (chickweed; PREEMERGENCE, Rate 4 g/ha): 0; Plant response rating (0 to 100), Chickweed (chickweed; Rate 16 g/ha, POSTEMERGENCE): 100; Plant response rating (0 to 100), Chickweed (chickweed; Rate 16 g/ha, PREEMERGENCE): 20; Plant response rating, Rape (rape; POSTEMERGENCE, Rate 10 g/ha): 10; Plant response rating, Rape (rape; POSTEMERGENCE, Rate 50 g/ha): 10; Plant response rating, Rape (rape; PREEMERGENCE, Rate 50 g/ha): 6; Plant response rating Pigweed (pigweed; POSTEMERGENCE): 100; Plant response rating (0 to 100), Pigweed (pigweed; POSTEMERGENCE, Rate 1 g/ha): 95; Plant response rating (0 to 100), Pigweed (pigweed; POSTEMERGENCE, Rate 4 g/ha): 100; Plant response rating Pigweed (pigweed; PREEMERGENCE): 100; Plant response rating (0 to 100), Pigweed (pigweed; PREEMERGENCE, Rate 1 g/ha): 0; Plant response rating (0 to 100), Pigweed (pigweed; PREEMERGENCE, Rate 4 g/ha): 90; Plant response rating (0 to 100), Pigweed (pigweed; Rate 16 g/ha, POSTEMERGENCE): 100; Plant response rating (0 to 100), Pigweed (pigweed; Rate 16 g/ha, PREEMERGENCE): 100; Plant response rating, Barley (barley [6]; POSTEMERGENCE, Rate 10 g/ha): 4; Plant response rating, Barley (barley [6]; POSTEMERGENCE, Rate 50 g/ha): 4; Plant response rating, Barley (barley [6]; PREEMERGENCE, Rate 10 g/ha): 0; Plant response rating, Barley (barley [6]; PREEMERGENCE, Rate 50 g/ha): 2
